2 molecules from US20160083643A1, “ENHANCED OIL RECOVERY METHOD EMPLOYING A BIODEGRADABLE BRINE TOLERANT FOAM-FORMING COMPOSITION” (DOW GLOBAL TECHNOLOGIES LLC, priority 2013, published 2016) can be followed below.

For one assay, the system named is Daphna magna. In words: 48-hour acute toxicity to Daphna magna. It is filed as in vivo. The settings on record: isolated, purified component from Example 3.
The subject of another assay is Desmondesmus subspicatus. In words: Fresh water algal growth inhibition test (OECD 201). The class given is cell-based. The settings on record: isolated, purified component from Example 3; read-out: Fresh Water algal growth inhibition test with Desmondesmus subspicatus ErC50/0-3. From the text: Aquatic Toxicity procedures and test methods are based on the recommendations of the following guidelines: Organization for Economic Cooperation and Development (OECD): OECD Guidelines for the Testing of Chemicals, “Freshwater Alga and Cyanobacteria, Growth Inhibition Test”, Procedure 201, adopted 23 Mar. 2006; European Economic Community (EEC): Commission directive 92/69/EEC of 31 Jul. 1992, Methods for the determination of ecotoxicity, C.3., “Algal Inhibition Test”. Preferably the surfactants of the present invention have a toxicity profile (EC50)>1 and </=10 mg/l; more preferably an EC50>10 and </=100 mg/l; and most preferably an EC50>100 mg/l.
The study procedures and test methods for aquatic toxicity are based on the recommendations of the following guidelines: Organization for Economic Cooperation and Development (OECD): OECD Guidelines for the Testing of Chemicals, “Freshwater Alga and Cyanobacteria, Growth Inhibition Test”, Procedure 201, adopted 23 Mar. 2006; European Economic Community (EEC): Commission directive 92/69/EEC of 31 Jul. 1992, Methods for the determination of ecotoxicity, C.3., “Algal Inhibition Test”.
Data from the aquatic toxicity tests of the isolated and purified C12 monosulfonate (sodium 2-(dodecanyloxy)-3-hydroxypropane-1-sulfonate) and C12 disulfonate (sodium 2-(dodecanyloxy)propane-1,3-disulfonate) from Example 3 is shown in Table 2. […]

On to `CCCCCCCCCCCCOC(CS(=O)(=O)[O-])CS(=O)(=O)[O-].[Na+].[Na+]` [C12 disulfonate component, sodium 2-(dodecanyloxy)propane-1,3-disulfonate], for which the EC50 with Daphna magna and in the assay on Desmondesmus subspicatus was above 100 µg/mL in each case.

Take `CCCCCCCCCCCCOC(CO)CS(=O)(=O)[O-].[Na+]` (stereo not shown) [C12 monosulfate component, sodium 2-(dodecanyloxy)-3-hydroxypropane-1-sulfonate]: the EC50 with Daphna magna and in the assay on Desmondesmus subspicatus was above 100 µg/mL in each case.
